According to patent publication US9814709B2, “Bruton's tyrosine kinase inhibitor” (HEFEI INSTITUTES OF PHYSICAL SCIENCE, CHINESE ACADEMY OF …, priority 2014, dated 2017):
Where two headings read alike, the source gives them in different places.

Legend:
[1] = test system: mouse TEL-EGFR/T790/L858R-BaF3 (stably expressing TEL-EGFR-T790M/L858R activated mutant kinase); assay: Cell growth, Cell Titer-Glo; type: cell-based; conditions: TEL-EGFR/T790/L858R-BaF3, 72 hrs, read-out: Half inhibitory concentration IC50
Excerpt: (§1) We further assessed the selectivity of Compound 1 to inhibit the proliferation of cancer cells, by testing the effect of Btk inhibitor on the growth of cancer cells. In the example, we used B-lymphoma cell Ramos, cervical cancer cells HeLa, prostate cancer cells DU145, RV-1 and C4-2, colon cancer cells HCT116, blood cancer cells K562, B-cell lymphoma cells U2932, diffuse large B-cell lymphoma cells OCI-LY10, diffuse histiocytic lymphoma cells SU-DHL-2, diffuse large B-cell lymphoma cells TMD8, human non-small cell lung cancer cells H1975 (expressing EGFR L858R/T790M double mutant gene), human lung adenocarcinoma cells A549 (expressing wild-type EGFR gene), human non-small cell lung cancer cells H460 (expressing wild-type EGFR gene), mantel cell lymphoma (MCL) cells Z-138, EB virus infected human peripheral lymphocyte cells JVM-2, MCL cells REC-1, leukemia cells AML-3, acute promyelocytic leukemia cell line NB-4(Lu+), MDS-RAEB (myelodysplastic syndrome-excessive blasts) cell line SKM-1 human leukemia cell Nomo-1, human B-cell leukemia cell line NALM6, human leukocyte leukemia cells HEL, human T-cell lymphoma cells PF-382, acute myelocytic leukemia (AML) cell line MOLM14, AML cell line MOLM13, human Burkitt's lymphoma cells Namalwa, mouse pro-B cells BaF3, all of where were purchased from ATCC. Also used were mouse TEL-EGFR-BaF3 (stably expressing TEL-EGFR activated kinase), mouse TEL-EGFR/T790-BaF3 cells (stably expressing TEL-EGFR-T790M activated mutant kinase), mouse TEL-EGFR/L858R-BaF3 cells (stably expressing TEL-EGFR-L858R activated mutant kinase), mouse TEL-EGFR/T790/L858R-BaF3 (stably expressing TEL-EGFR-T790M/L858R activated mutant kinase), mouse TEL-BMX-BaF3 cells (stably expressing TEL-BMX activated kinase), mouse TEL-JAK1-BaF3 cells (stably expressing TEL-JAK1 activated kinase), mouse TEL-JAK2-BaF3 cells (stably expressing TEL-JAK2 activated kinase), mouse TEL-JAK3-BaF3 cells (stably expressing TEL-JAK3 activated kinase), where were all established by our laboratory via the following method: the kinase domain sequences of human EGFR, BMX, JAK1, JAK2, JAK3 were amplified respectively by PCR, and these kinase were inserted into the MSCV-Puro vectors with N-terminal TEL segment (Clontech); if there was a mutation, the mutation of the corresponding site was conducted by Site-Directed Mutagenesis kit (Stratagene); the resultants were stably transfected into mouse BaF3 cells by the means of retrovirus, and the IL-3 growth factors were removed, and eventually the EGFR, BMX, JAK1, JAK2, JAK3-transferred protein dependent cell lines were obtained.
(§2) In the example, different concentrations (0.000508 μM, 0.00152 μM, 0.00457 μM, 0.0137 μM, 0.0411 μM, 0.123 μM, 0.370 μM, 1.11 μM, 3.33 μM, 10 μM) of Compound 1 and Compound 19 were added into above cells, and were incubated for 72 hrs. The number of viable cells was determined by quantitating ATP in viable cells using Cell Titer-Glo® (Promega, U.S.) chemiluminescence cell viability assay kit.

[2] = test system: mouse TEL-EGFR/T790-BaF3 cells (stably expressing TEL-EGFR-T790M activated mutant kinase); assay: Cell growth, Cell Titer-Glo; type: cell-based; conditions: TEL-EGFR/T790-BaF3, 72 hrs, read-out: Half inhibitory concentration IC50
Excerpt: as §1, §2

[3] = test system: mouse TEL-JAK3-BaF3 cells (stably expressing TEL-JAK3 activated kinase); assay: Cell growth, Cell Titer-Glo; type: cell-based; conditions: TEL-JAK3-BaF3, 72 hrs, read-out: Half inhibitory concentration IC50
Excerpt: as §1, §2

[4] = test system: mouse TEL-JAK2-BaF3 cells (stably expressing TEL-JAK2 activated kinase); assay: Cell growth, Cell Titer-Glo; type: cell-based; conditions: TEL-JAK2-BaF3, 72 hrs, read-out: Half inhibitory concentration IC50
Excerpt: as §1, §2

[5] = test system: mouse TEL-EGFR/L858R-BaF3 cells (stably expressing TEL-EGFR-L858R activated mutant kinase); assay: Cell growth, Cell Titer-Glo; type: cell-based; conditions: TEL-EGFR/L858R-BaF3, 72 hrs, read-out: Half inhibitory concentration IC50
Excerpt: as §1, §2

[6] = test system: mouse TEL-BMX-BaF3 cells (stably expressing TEL-BMX activated kinase); assay: Cell growth, Cell Titer-Glo; type: cell-based; conditions: TEL-BMX-BaF3, 72 hrs, read-out: Half inhibitory concentration IC50
Excerpt: as §1, §2

[7] = test system: mouse TEL-JAK1-BaF3 cells (stably expressing TEL-JAK1 activated kinase); assay: Cell growth, Cell Titer-Glo; type: cell-based; conditions: TEL-JAK1-BaF3, 72 hrs, read-out: Half inhibitory concentration IC50
Excerpt: as §1, §2

[8] = test system: mouse TEL-EGFR-BaF3 (stably expressing TEL-EGFR activated kinase); assay: Cell growth, Cell Titer-Glo; type: cell-based; conditions: TEL-EGFR-BaF3, 72 hrs, read-out: Half inhibitory concentration IC50
Excerpt: as §1, §2

mouse pro-B cells BaF3 = assay: Cell growth, Cell Titer-Glo; type: cell-based; conditions: BaF3, 72 hrs (listed twice in Table 3), read-out: Half inhibitory concentration IC50
Excerpt: as §1, §2

[9] = test system: SD rat adjuvant arthritis (AA) model; assay: SD rat adjuvant arthritis (AA) model, arthritis index; type: in vivo
Method: In this example, SD rat adjuvant arthritis (AA) model (purchased from the Experimental Animal Center of Anhui Province) was used. PCI-32765 and methotrexate (MTX) were used as positive control (both purchased from Shanghai Chemexpress). The therapeutic effect of Compound 1 on AA rats was studied via the combination of in vivo and in vitro administration. 10 mg/nal of complete Freund's adjuvant (CFA, purchased from Shanghai Chemexpress) was mixed well, and 0.1 ml of CFA was intracutaneously injected into each rat at right posterior plantar to induce inflammation. The normal group was injected with saline via the same method. On the 17th day, the successful modeling male SD rats were randomly divided into 7 groups with 10 rats in each group, namely the model group, the small/medium/large dose of Compound 1 group (12.5, 25, 50 mg/kg/per administration, intraperitoneal injection, one administration per day for 16 days), the Compound 19 group (25 mg/kg/per administration, intraperitoneal injection, one administration per day for 16 days), the positive control PCI-32765 group (25 mg/kg/per administration, intraperitoneal injection, one administration per day for 16 days), the MTX group (0.5 mg/kg, intragastrical, one administration every 3 days, totally 6 times). The rats in the model group were intraperitoneally injected with the same amount of DMSO solution.

IC50 [1]	IC50 [2]	IC50 [3]	IC50 [4]	IC50 [5]	IC50 [6]	IC50 [7]	IC50 [8]	IC50 (mouse pro-B cells BaF3; Mus musculus, BaF3, 72 h)	IC50 (mouse pro-B cells BaF3)	Structure (SMILES)	effect on the rat arthritis index ([9]; 25 mg/kg intraperitoneal once per day for 16 days)	effect on arthritis index of rats compared with the model group ([9]; 12.5 mg/kg intraperitoneal once per day, starting from day 21)	effect on arthritis index of rats ([9]; 12.5 mg/kg intraperitoneal once per day, starting from day 24)
> 10000 nM	> 10000 nM	> 10000 nM	> 10000 nM	> 10000 nM	> 10000 nM	> 10000 nM	> 10000 nM	> 10000 nM		CCC(=O)Nc1cc(-n2c(=O)ccc3cnc4ccc(-n5cccn5)cc4c32)ccc1C [Compound 19, N-(2-methyl-5-(2-oxo-9-(1H-pyrazol-1-yl)benzo[H][1,6]naphthyridin-1(2H)-yl)phenyl) propionamide]	little effect		
1590 nM	918 nM	2300 nM	2100 nM	292 nM	18 nM	1600 nM	2660 nM	4200 nM	4280 nM	C=CC(=O)Nc1cc(-n2c(=O)ccc3cnc4ccc(-n5cccn5)cc4c32)ccc1C [Compound 1, N-(2-methyl-5-(2-oxo-9-(1H-pyrazol-1-yl)benzo[H][1,6]naphthyridin-1(2H)-yl)phenyl)acrylamide]		significantly reduced	significantly reduce
